The source made the active and inactive calls. The rule behind the calls is not given here.
System: CCRIS mutagenicity, Ames/micronucleus/aberration tests
Experiment: CCRIS mutagenicity studies

Measured: mutagenic call

CC(=O)Nc1ccc(C(=O)CCl)cc1
active: Test System: AMES SALMONELLA TYPHIMURIUM, Strain/Indicator: TA98, Metabolic Activation: HAMSTER, LIVER, S-9, AROCLOR 1254, Method: STANDARD PLATE active; positive | Test System: AMES SALMONELLA TYPHIMURIUM, Strain/Indicator: TA98, Metabolic Activation: HAMSTER, LIVER, S-9, Method: STANDARD PLATE active; positive | Test System: AMES SALMONELLA TYPHIMURIUM, Strain/Indicator: TA98, Metabolic Activation: NONE active; positive | Test System: AMES SALMONELLA TYPHIMURIUM, Strain/Indicator: TA98, Metabolic Activation: RAT, LIVER, S-9, PHENOBARBITONE AND BETA-NAPHTHOFLAVONE active; positive | Test System: AMES SALMONELLA TYPHIMURIUM, Strain/Indicator: TA1538, Metabolic Activation: RAT, LIVER, S-9, PHENOBARBITONE AND BETA-NAPHTHOFLAVONE active; positive
inactive: Test System: AMES SALMONELLA TYPHIMURIUM, Strain/Indicator: TA98, Metabolic Activation: MOUSE, LIVER, S-9, Method: STANDARD PLATE inactive; negative | Test System: AMES SALMONELLA TYPHIMURIUM, Strain/Indicator: TA98, Metabolic Activation: RAT, LIVER, S-9, AROCLOR 1254, Method: STANDARD PLATE inactive; negative | Test System: AMES SALMONELLA TYPHIMURIUM, Strain/Indicator: TA98, Metabolic Activation: RAT, LIVER, S-9, Method: STANDARD PLATE inactive; negative | Test System: AMES SALMONELLA TYPHIMURIUM, Strain/Indicator: TA100, Metabolic Activation: HAMSTER, LIVER, S-9, AROCLOR 1254, Method: STANDARD PLATE inactive; negative | Test System: AMES SALMONELLA TYPHIMURIUM, Strain/Indicator: TA100, Metabolic Activation: HAMSTER, LIVER, S-9, Method: STANDARD PLATE inactive; negative | Test System: AMES SALMONELLA TYPHIMURIUM, Strain/Indicator: TA100, Metabolic Activation: MOUSE, LIVER, S-9, AROCLOR 1254, Method: STANDARD PLATE inactive; negative | Test System: AMES SALMONELLA TYPHIMURIUM, Strain/Indicator: TA100, Metabolic Activation: MOUSE, LIVER, S-9, Method: STANDARD PLATE inactive; negative | Test System: AMES SALMONELLA TYPHIMURIUM, Strain/Indicator: TA100, Metabolic Activation: NONE inactive; negative | Test System: AMES SALMONELLA TYPHIMURIUM, Strain/Indicator: TA100, Metabolic Activation: NONE, Method: STANDARD PLATE inactive; negative | Test System: AMES SALMONELLA TYPHIMURIUM, Strain/Indicator: TA100, Metabolic Activation: RAT, LIVER, S-9, AROCLOR 1254, Method: STANDARD PLATE inactive; negative | Test System: AMES SALMONELLA TYPHIMURIUM, Strain/Indicator: TA100, Metabolic Activation: RAT, LIVER, S-9, PHENOBARBITONE AND BETA-NAPHTHOFLAVONE inactive; negative | Test System: AMES SALMONELLA TYPHIMURIUM, Strain/Indicator: TA100, Metabolic Activation: RAT, LIVER, S-9, Method: STANDARD PLATE inactive; negative | Test System: AMES SALMONELLA TYPHIMURIUM, Strain/Indicator: TA1535, Metabolic Activation: HAMSTER, LIVER, S-9, AROCLOR 1254, Method: STANDARD PLATE inactive; negative | Test System: AMES SALMONELLA TYPHIMURIUM, Strain/Indicator: TA1535, Metabolic Activation: HAMSTER, LIVER, S-9, Method: STANDARD PLATE inactive; negative | Test System: AMES SALMONELLA TYPHIMURIUM, Strain/Indicator: TA1535, Metabolic Activation: MOUSE, LIVER, S-9, AROCLOR 1254, Method: STANDARD PLATE inactive; negative | Test System: AMES SALMONELLA TYPHIMURIUM, Strain/Indicator: TA1535, Metabolic Activation: MOUSE, LIVER, S-9, Method: STANDARD PLATE inactive; negative | Test System: AMES SALMONELLA TYPHIMURIUM, Strain/Indicator: TA1535, Metabolic Activation: NONE, Method: STANDARD PLATE inactive; negative | Test System: AMES SALMONELLA TYPHIMURIUM, Strain/Indicator: TA1535, Metabolic Activation: RAT, LIVER, S-9, AROCLOR 1254, Method: STANDARD PLATE inactive; negative | Test System: AMES SALMONELLA TYPHIMURIUM, Strain/Indicator: TA1535, Metabolic Activation: RAT, LIVER, S-9, Method: STANDARD PLATE inactive; negative | Test System: AMES SALMONELLA TYPHIMURIUM, Strain/Indicator: TA1537, Metabolic Activation: HAMSTER, LIVER, S-9, Method: STANDARD PLATE inactive; negative | Test System: AMES SALMONELLA TYPHIMURIUM, Strain/Indicator: TA1537, Metabolic Activation: MOUSE, LIVER, S-9, Method: STANDARD PLATE inactive; negative | Test System: AMES SALMONELLA TYPHIMURIUM, Strain/Indicator: TA1538, Metabolic Activation: NONE inactive; negative | Test System: AMES SALMONELLA TYPHIMURIUM, Strain/Indicator: TA1538, Metabolic Activation: RAT, LIVER, S-9, AROCLOR 1254, Method: STANDARD PLATE inactive; negative | Test System: AMES SALMONELLA TYPHIMURIUM, Strain/Indicator: TA1538, Metabolic Activation: RAT, LIVER, S-9, Method: STANDARD PLATE inactive; negative | Test System: E. COLI, Strain/Indicator: WP2 UVRA, Metabolic Activation: HAMSTER, LIVER, S-9, AROCLOR 1254, Method: STANDARD PLATE inactive; negative | Test System: E. COLI, Strain/Indicator: WP2 UVRA, Metabolic Activation: HAMSTER, LIVER, S-9, Method: STANDARD PLATE inactive; negative | Test System: E. COLI, Strain/Indicator: WP2 UVRA, Metabolic Activation: MOUSE, LIVER, S-9, Method: STANDARD PLATE inactive; negative | Test System: E. COLI, Strain/Indicator: WP2 UVRA, Metabolic Activation: NONE, Method: STANDARD PLATE inactive; negative | Test System: E. COLI, Strain/Indicator: WP2 UVRA, Metabolic Activation: RAT, LIVER, S-9, AROCLOR 1254, Method: STANDARD PLATE inactive; negative | Test System: E. COLI, Strain/Indicator: WP2 UVRA, Metabolic Activation: RAT, LIVER, S-9, Method: STANDARD PLATE inactive; negative

From PubChem BioAssay AID1259407 (Chemical Carcinogenesis Research Information System (CCRIS), 2018)
